# Source: ChEMBL document CHEMBL1137565, “Discovery of novel 8-azoniabicyclo[3.2.1]octane carbamates as muscarinic acetylcholine receptor antagonists” (Bioorg Med Chem Lett, 2007)
# Legend:
# [1] = biological target: Muscarinic acetylcholine receptors; M2 & M3 (Homo sapiens) (UniProt P20309+P08172); experiment: Selectivity for cloned muscarinic M3 receptor over cloned muscarinic M2 receptor
# [2] = biological target: Muscarinic acetylcholine receptor M3 (Homo sapiens, UniProt P20309); experiment: Antagonist activity at cloned muscarinic M3 receptor expressed in CHO cells by measuring calcium mobilization; type: functional, cell-based
# Muscarinic acetylcholine receptor M3, sequence (P20309 whole entry): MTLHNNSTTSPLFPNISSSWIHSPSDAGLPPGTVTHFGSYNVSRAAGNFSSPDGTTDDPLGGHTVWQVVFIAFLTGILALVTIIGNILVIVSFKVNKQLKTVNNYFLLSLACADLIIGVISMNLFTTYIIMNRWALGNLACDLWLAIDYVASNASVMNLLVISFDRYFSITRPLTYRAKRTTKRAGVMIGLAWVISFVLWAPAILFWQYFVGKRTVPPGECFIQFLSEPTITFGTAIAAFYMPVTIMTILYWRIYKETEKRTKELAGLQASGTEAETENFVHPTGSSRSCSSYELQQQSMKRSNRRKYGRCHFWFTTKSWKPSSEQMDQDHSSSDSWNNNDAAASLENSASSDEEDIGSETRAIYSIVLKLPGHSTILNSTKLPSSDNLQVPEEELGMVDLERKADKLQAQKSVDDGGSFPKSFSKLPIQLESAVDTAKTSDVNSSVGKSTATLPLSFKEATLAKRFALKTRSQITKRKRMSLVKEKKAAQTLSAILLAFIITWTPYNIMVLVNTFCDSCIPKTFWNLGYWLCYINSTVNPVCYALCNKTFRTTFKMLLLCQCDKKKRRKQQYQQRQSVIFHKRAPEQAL
# [3] = biological target: Muscarinic acetylcholine receptor M1 and M3 (Homo sapiens) (UniProt P20309+P11229); experiment: Selectivity for cloned muscarinic M3 receptor over cloned muscarinic M1 receptor
# Muscarinic acetylcholine receptor M1 and M3 (Homo sapiens), sequence (P20309 whole entry, looked up, one chain of several): as the sequence (P20309 whole entry) above
# [4] = biological target: T1, Muscarinic acetylcholine receptor M2 (Homo sapiens, UniProt P08172); experiment: Antagonist activity at cloned muscarinic M2 receptor expressed in CHO cells by measuring calcium mobilization; type: functional, cell-based
# T1 sequence (P08172 whole entry): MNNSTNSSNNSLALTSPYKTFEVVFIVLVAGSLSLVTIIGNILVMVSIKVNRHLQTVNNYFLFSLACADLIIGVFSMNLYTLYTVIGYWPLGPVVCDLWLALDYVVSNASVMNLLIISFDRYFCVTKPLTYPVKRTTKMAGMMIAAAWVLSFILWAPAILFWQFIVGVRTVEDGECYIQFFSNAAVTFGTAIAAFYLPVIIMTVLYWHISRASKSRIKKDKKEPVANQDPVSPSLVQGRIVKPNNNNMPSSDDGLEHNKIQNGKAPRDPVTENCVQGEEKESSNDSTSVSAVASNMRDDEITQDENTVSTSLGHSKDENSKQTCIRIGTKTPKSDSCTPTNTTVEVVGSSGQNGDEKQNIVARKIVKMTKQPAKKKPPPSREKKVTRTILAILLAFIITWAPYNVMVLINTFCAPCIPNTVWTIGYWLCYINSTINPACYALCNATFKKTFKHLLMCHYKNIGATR
# [5] = biological target: T2, Muscarinic acetylcholine receptor M1 (Homo sapiens, UniProt P11229); experiment: Antagonist activity at cloned muscarinic M1 receptor expressed in CHO cells by measuring calcium mobilization; type: functional, cell-based
# T2 sequence (P11229 whole entry): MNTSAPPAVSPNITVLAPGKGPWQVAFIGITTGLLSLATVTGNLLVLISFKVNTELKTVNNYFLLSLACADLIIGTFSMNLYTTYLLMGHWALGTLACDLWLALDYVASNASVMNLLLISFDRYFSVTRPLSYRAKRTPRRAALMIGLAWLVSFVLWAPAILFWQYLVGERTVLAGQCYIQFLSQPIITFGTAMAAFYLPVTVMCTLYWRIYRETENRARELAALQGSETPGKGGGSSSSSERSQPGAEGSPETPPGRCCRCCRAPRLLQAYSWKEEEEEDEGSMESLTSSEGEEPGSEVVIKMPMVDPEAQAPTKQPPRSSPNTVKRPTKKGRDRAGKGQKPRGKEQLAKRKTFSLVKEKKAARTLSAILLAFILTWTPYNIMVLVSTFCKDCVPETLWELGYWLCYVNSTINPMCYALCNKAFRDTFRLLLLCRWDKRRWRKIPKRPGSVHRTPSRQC
# Mus musculus [6] = species: Mus musculus; experiment: Effect on metacholine-induced bronchoconstriction in mouse assessed as bronchoprotection at 5 ug after 15 mins; type: functional
# Mus musculus [7] = species: Mus musculus; experiment: Effect on metacholine-induced bronchoconstriction in mouse assessed as bronchoprotection at 5 ug after 5 hrs; type: functional
SMILES,Ratio IC50 [1],IC50 [2] [nM],Ratio IC50 [3],IC50 [4] [nM],IC50 [5] [nM],Activity (Mus musculus [6]) [%],Activity (Mus musculus [7]) [%]
CN1[C@@H]2CC[C@H]1C[C@H](OC(=O)N(Cc1ccccc1)c1ccsc1)C2,3.6,10.9,1.7,39.1,19.1,,
C[N+]1(C)[C@@H]2CC[C@H]1C[C@H](OC(=O)N(Cc1ccc(Br)cc1)c1ccccc1)C2,7.1,56.6,0.6,400,33.4,,
CN1[C@@H]2CC[C@H]1C[C@@H](OC(=O)N(Cc1ccccc1Br)c1ccccc1)C2,1.2,1140,1.2,1400,1390,,
C[N+]1(C)[C@@H]2CC[C@H]1C[C@H](OC(=O)N(Cc1ccccc1)c1ccccc1)C2.[Br-],10.4,4.6,1,48,4.5,85,
C[N+]1(C)[C@@H]2CC[C@H]1C[C@H](OC(=O)N(Cc1ccccc1Br)c1ccccc1)C2,1.6,407,1,666,420,,
CN1[C@@H]2CC[C@H]1C[C@@H](OC(=O)N(Cc1ccc(C#N)cc1)c1ccccc1)C2,1.1,1160,0.7,1350,847,,
CN1[C@@H]2CC[C@H]1C[C@H](OC(=O)N(Cc1ccsc1)c1ccsc1)C2,2.7,7.2,1.9,19.6,13.8,,
CN1[C@@H]2CC[C@H]1C[C@H](OC(=O)N(Cc1ccoc1)c1ccccc1)C2,1.4,57.3,1.5,82.5,84.5,,
CN1[C@@H]2CC[C@H]1C[C@@H](OC(=O)N(CC1CCCCC1)c1ccsc1)C2,2.5,109,1.1,271,126,,
Cc1ccc(CN(C(=O)O[C@@H]2C[C@H]3CC[C@@H](C2)N3C)c2ccccc2)s1,0.4,262,2,410,518,,
C[N+]1(C)[C@@H]2CC[C@H]1C[C@@H](OC(=O)N(Cc1cccc(C#N)c1)c1ccsc1)C2,4.7,137,0.4,638,55.6,,
CN1[C@@H]2CC[C@H]1C[C@H](OC(=O)N(Cc1cccs1)c1ccccc1)C2,1.9,20.3,2.4,38.2,48.3,,
CN1[C@@H]2CC[C@H]1C[C@H](OC(=O)N(Cc1ccccc1)c1ccccc1)C2,3.4,74.5,2.2,254,161,,
Cc1ccsc1CN(C(=O)O[C@H]1C[C@H]2CC[C@@H](C1)[N+]2(C)C)c1ccccc1,5.4,6.4,0.6,34.7,3.8,,
COc1ccc(CN(C(=O)O[C@H]2C[C@H]3CC[C@@H](C2)N3C)c2ccccc2)cc1,1.8,776,0.9,1360,734,,
C[N+]1(C)[C@@H]2CC[C@H]1C[C@H](OC(=O)N(Cc1cccs1)c1ccccc1)C2.[Br-],5.4,2.3,1,12.5,2.4,85,
Cc1ccsc1CN(C(=O)O[C@H]1C[C@H]2CC[C@@H](C1)N2C)c1ccccc1,1.8,108,1.1,191,117,,
C[N+]1(C)[C@@H]2CC[C@H]1C[C@H](OC(=O)N(CC1CCCCC1)c1ccsc1)C2,5,11.3,0.5,55.9,5.8,,

SMILES,Ratio IC50 [1],IC50 [2] [nM],Ratio IC50 [3],IC50 [4] [nM],IC50 [5] [nM],Activity (Mus musculus [6]) [%],Activity (Mus musculus [7]) [%]
C[N+]1(C)[C@@H]2CC[C@H]1C[C@H](OC(=O)N(Cc1cccc(Br)c1)c1ccccc1)C2,1.5,342,0.6,520,210,,
CN1[C@@H]2CC[C@H]1C[C@@H](OC(=O)N(Cc1ccc(C#N)cc1)c1ccsc1)C2,2.6,137,0.6,363,75.8,,
CN1[C@@H]2CC[C@H]1C[C@H](OC(=O)N(Cc1ccccc1)c1cccs1)C2,1.2,22.9,2,26.5,45.1,,
CN1[C@@H]2CC[C@H]1C[C@@H](OC(=O)N(Cc1ccsc1)c1ccccc1)C2,3.3,27.5,2.7,90.7,73.8,,
Cc1ccc(CN(C(=O)O[C@@H]2C[C@H]3CC[C@@H](C2)[N+]3(C)C)c2ccccc2)s1,2.9,21.2,0.8,60.8,15.8,,
CN1[C@@H]2CC[C@H]1C[C@@H](OC(=O)N(Cc1cccc(Br)c1)c1ccccc1)C2,0.9,2310,0.9,2160,1960,,
COc1ccc(CN(C(=O)O[C@H]2C[C@H]3CC[C@@H](C2)[N+]3(C)C)c2ccccc2)cc1,4.4,154,0.6,688,86,,
Cc1ccoc1CN(C(=O)O[C@@H]1C[C@H]2CC[C@@H](C1)N2C)c1ccccc1,1.1,428,0.8,468,349,,
Cc1ccoc1CN(C(=O)O[C@H]1C[C@H]2CC[C@@H](C1)[N+]2(C)C)c1ccccc1,5.4,42.3,0.4,229,15.2,,
C[N+]1(C)[C@@H]2CC[C@H]1C[C@@H](OC(=O)N(Cc1ccsc1)c1ccccc1)C2.[Br-],10.8,2.8,0.9,30.2,2.6,85,
COc1cccc(CN(C(=O)O[C@@H]2C[C@H]3CC[C@@H](C2)[N+]3(C)C)c2ccccc2)c1,1,972,0.6,1000,612,,
C[N+]1(C)[C@@H]2CC[C@H]1C[C@H](OC(=O)N(Cc1ccccc1)c1cccs1)C2.[Br-],5.7,3,0.2,13.8,2.7,85,80
CN1[C@@H]2CC[C@H]1C[C@H](OC(=O)N(Cc1ccc(Br)cc1)c1ccccc1)C2,2,721,1.1,1420,813,,
C[N+]1(C)[C@@H]2CC[C@H]1C[C@H](OC(=O)N(Cc1ccoc1)c1ccccc1)C2,3.4,16,0.8,53.7,12.2,,
COc1cccc(CN(C(=O)O[C@@H]2C[C@H]3CC[C@@H](C2)N3C)c2ccccc2)c1,0.5,2140,0.6,1170,1210,,
C[N+]1(C)[C@@H]2CC[C@H]1C[C@@H](OC(=O)N(Cc1ccc(C#N)cc1)c1ccccc1)C2,2.1,714,0.4,1490,258,,
C[N+]1(C)[C@@H]2CC[C@H]1C[C@@H](OC(=O)N(Cc1ccsc1)c1ccsc1)C2.[Br-],7.2,1,1.6,7.2,1.6,85,
